Some test systems named below: HCT-116 colon; 786-0 renal; NCI-H460 lung; ACHN renal; LXFL 529 NSCLC; XF 498 CNS; TK-10 renal; LOX IMVI melanoma; SW-620 colon; SN12C renal; DMS 114 small cell lung.
Common to all, as to test: NCI-60 cell line screen, 48 h

Several values for one entry are separate records, joined by “and”; a condition that tells them apart may be missing. Equal values may be shown once.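 How tested: cells in 96-well plates exposed to compound for 48 hours at five concentrations. At the GI50, growth is halved. TGI marks complete inhibition of growth.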

Turning to `Clc1cc(Cl)c2ns[s+]c2c1Cl`, the TGI with HCT-116 colon, in the assay with 786-0 renal, with NCI-H460 lung, in the assay with ACHN renal, in the assay with LXFL 529 NSCLC and with XF 498 CNS was more than 100 µM throughout. Besides, the TGI in the assay with TK-10 renal, in the assay with LOX IMVI melanoma, in the assay with SW-620 colon and in the assay on SN12C renal was more than 100 µM in each case.
On to `CNC(=S)/N=C(\N)N(C)C`, for which the TGI in the assay on HCT-116 colon, with 786-0 renal, in the assay with NCI-H460 lung, in the assay on ACHN renal, with DMS 114 small cell lung and in the assay with LXFL 529 NSCLC was more than 100 µM each time. In addition, the TGI with XF 498 CNS, in the assay with TK-10 renal, in the assay with LOX IMVI melanoma, in the assay with SW-620 colon and in the assay with SN12C renal was more than 100 µM in each case.
Turning to `CCOC(=O)/C(C)=C(/O)C(=O)OCC`, the TGI with HCT-116 colon, in the assay on 786-0 renal, with NCI-H460 lung, in the assay on ACHN renal, in the assay on DMS 114 small cell lung and in the assay on LXFL 529 NSCLC was more than 100 µM throughout. In addition, the TGI in the assay on XF 498 CNS, in the assay on TK-10 renal, in the assay on LOX IMVI melanoma, with SW-620 colon and in the assay with SN12C renal was more than 100 µM each time.
Consider `COc1cc2[nH]c3c(c2cc1OC)CCN[C@]31CC[C@]2(CC3c4c(cc(OC)c(O)c42)CCN3C)C[C@H]1OC` (stereo partly drawn), for which the TGI in the assay on HCT-116 colon turned out to be 31.6 µM; in the assay with 786-0 renal it was 32.6 µM; with NCI-H460 lung it was 63.5 µM; with ACHN renal, 62.4 µM; with DMS 114 small cell lung it was 31.4 µM; with LXFL 529 NSCLC, 61 µM. Also, the TGI in the assay with XF 498 CNS turned out to be 29.8 µM; with TK-10 renal, 51.1 µM; with LOX IMVI melanoma, 56 µM; in the assay with SW-620 colon, 53.3 µM; with SN12C renal it was 62.8 µM.
Regarding `CN(Cc1ccccc1)C(=O)c1ccccc1C(=O)O`, the TGI in the assay with HCT-116 colon, in the assay with 786-0 renal, with NCI-H460 lung, in the assay on ACHN renal, in the assay on DMS 114 small cell lung and in the assay with LXFL 529 NSCLC was more than 100 µM each time. Besides, the TGI with XF 498 CNS, in the assay with TK-10 renal, in the assay with LOX IMVI melanoma, with SW-620 colon and in the assay with SN12C renal was more than 100 µM throughout.
`c1cnn(CN(Cn2cccn2)Cn2cccn2)c1`: the TGI with HCT-116 colon, in the assay on 786-0 renal, with NCI-H460 lung, in the assay with ACHN renal, in the assay on DMS 114 small cell lung and in the assay on XF 498 CNS was more than 100 µM each time. The TGI with TK-10 renal, in the assay on LOX IMVI melanoma, with SW-620 colon and with SN12C renal was more than 100 µM throughout.
For the molecule `CCCC1=C(CC)C(C(=O)Nc2c(C)cccc2C)=NC(S)N1` (stereo not drawn), the TGI in the assay on HCT-116 colon, in the assay on 786-0 renal, with NCI-H460 lung, in the assay on ACHN renal, with DMS 114 small cell lung and in the assay with LXFL 529 NSCLC was more than 100 µM throughout. Further, the TGI with XF 498 CNS, in the assay with TK-10 renal, in the assay on SW-620 colon and in the assay with SN12C renal was more than 100 µM throughout.
For `COc1cc(Cc2nccc3cc(OC)c(OC)cc23)c(C(C)=O)cc1OC`, the TGI in the assay on 786-0 renal is more than 750 µM; in the assay with NCI-H460 lung, 300 µM and > 750 µM; with ACHN renal, 429 µM; in the assay with DMS 114 small cell lung it was 300 µM and 164 µM; in the assay with LXFL 529 NSCLC it was more than 750 µM; in the assay on XF 498 CNS, 300 µM. The TGI was 341 µM in the assay on TK-10 renal; 300 µM and > 750 µM in the assay with LOX IMVI melanoma; 300 µM and > 750 µM with SW-620 colon; 30 µM with SN12C renal. The GI50 in the assay with NCI-H460 lung is 52.9 µM and 85.5 µM and 340 µM; with DMS 114 small cell lung it was 3.02 µM; in the assay on LOX IMVI melanoma, 150 µM and 94 µM.
With `CC1=CC(C)(C)N=C2SC(c3ccc(N)cc3)=NN12`, the TGI in the assay on HCT-116 colon was more than 100 µM; in the assay with 786-0 renal, more than 100 µM; with NCI-H460 lung, more than 100 µM; with ACHN renal, more than 100 µM; in the assay with DMS 114 small cell lung it was more than 100 µM; with LXFL 529 NSCLC it was more than 77.6 µM. The TGI was more than 100 µM in the assay on XF 498 CNS; more than 100 µM with TK-10 renal; more than 100 µM with LOX IMVI melanoma; more than 61.2 µM in the assay with SW-620 colon; more than 100 µM in the assay on SN12C renal.
Consider `COc1cc(/C=C/c2ccc(OC)c(O)c2)cc(OC)c1`, for which the TGI was 12.3 µM in the assay with HCT-116 colon; 32.7 µM with 786-0 renal; 14.1 µM with NCI-H460 lung; 41.2 µM with ACHN renal; 17.9 µM in the assay with DMS 114 small cell lung; 39.3 µM with LXFL 529 NSCLC. Further, the TGI was determined as 9.52 µM in the assay on XF 498 CNS; 91.4 µM in the assay with TK-10 renal; 34.2 µM in the assay on LOX IMVI melanoma; 13.7 µM with SW-620 colon; 30.3 µM in the assay on SN12C renal.
For `CCOC(=O)N[C@@H]1C(CC(=O)OC)O[C@H]2OC(C)(C)O[C@H]21` (stereo partly drawn), the TGI with 786-0 renal, in the assay with NCI-H460 lung, with ACHN renal, in the assay on DMS 114 small cell lung, in the assay with LXFL 529 NSCLC and in the assay on XF 498 CNS was more than 100 µM each time. For the same molecule, the TGI in the assay with LOX IMVI melanoma, in the assay with SW-620 colon and in the assay on SN12C renal was more than 100 µM each time.
As for `CCOC(=O)C1SC(=Nc2ccc(C)c(C)c2)N=C1C` (stereo not drawn), the TGI with 786-0 renal, in the assay on NCI-H460 lung, in the assay on ACHN renal, with DMS 114 small cell lung, in the assay with LXFL 529 NSCLC and with XF 498 CNS was more than 100 µM throughout. Besides, the TGI in the assay with TK-10 renal, with LOX IMVI melanoma, with SW-620 colon and in the assay on SN12C renal was more than 100 µM each time.

(Values after PubChem BioAssay (NCI).)
